Results: US20230399327A1, “HIGH ACTIVITY HPK1 KINASE INHIBITOR” (ADLAI NORTYE BIOPHARMA CO., LTD., priority 2020, published 2023)

What follows are compounds tested against HPK1 kinase (Homo sapiens (Human), UniProt Q92918) (assay: HPK1 kinase activity inhibition (ADP-Glo Kinase Assay)). Conditions: HPK1, MBP substrate, ATP, 25° C. 60 min.
HPK1 kinase, sequence (Q92918 whole entry): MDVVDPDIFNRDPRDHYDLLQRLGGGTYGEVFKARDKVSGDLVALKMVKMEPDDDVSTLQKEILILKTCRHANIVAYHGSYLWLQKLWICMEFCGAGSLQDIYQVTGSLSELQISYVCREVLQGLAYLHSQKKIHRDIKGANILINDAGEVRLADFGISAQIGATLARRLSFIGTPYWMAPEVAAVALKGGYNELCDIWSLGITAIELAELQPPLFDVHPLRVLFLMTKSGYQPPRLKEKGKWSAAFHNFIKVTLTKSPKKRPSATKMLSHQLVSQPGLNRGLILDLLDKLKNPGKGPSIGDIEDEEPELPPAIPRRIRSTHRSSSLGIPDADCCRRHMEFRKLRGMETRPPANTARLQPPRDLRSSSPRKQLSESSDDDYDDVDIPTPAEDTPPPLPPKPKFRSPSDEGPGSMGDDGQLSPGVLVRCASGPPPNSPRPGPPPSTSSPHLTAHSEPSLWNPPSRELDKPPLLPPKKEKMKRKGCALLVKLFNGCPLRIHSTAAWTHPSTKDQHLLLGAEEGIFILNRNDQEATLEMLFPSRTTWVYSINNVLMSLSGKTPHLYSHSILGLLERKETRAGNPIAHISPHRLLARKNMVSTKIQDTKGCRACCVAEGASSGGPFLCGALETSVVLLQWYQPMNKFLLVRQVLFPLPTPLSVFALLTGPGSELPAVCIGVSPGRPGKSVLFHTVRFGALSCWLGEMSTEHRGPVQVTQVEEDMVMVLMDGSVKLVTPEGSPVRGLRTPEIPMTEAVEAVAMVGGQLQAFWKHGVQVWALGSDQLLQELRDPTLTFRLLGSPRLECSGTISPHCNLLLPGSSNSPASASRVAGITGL
Format: biochemical
Protocol: Test Example 1: Detection of Compound's Ability to Inhibit HPK1 Kinase Activity (Method 1)
The specific operation is as follows: configure the enzymatic reaction system buffer (10 mM MOPS, pH 7.2, 5 mM β-glycerol-phosphate, 10 mM MgCl2, 0.8 mM EDTA, 2 mM EGTA, 0.1 mM DTT); the test compound (1 mM the compound stock solution in DMSO) was diluted with buffer to the highest concentration of 60 uM (containing 6% DMSO), and the compound with a concentration of 60 μM was initially diluted 5 times with a buffer containing 6% DMSO for a total of 8 points of gradient concentration; then dilute HPK1 kinase to 30 nM in buffer. Add 2 μl of HPK1 kinase diluent to each well of a Greiner 384-well microplate (Cat. No. 784075), and add 2 μl of buffer to the control well; add 1 μl of the diluted compound to the reaction well after brief centrifugation, and add 1 μl buffer solution containing 6% DMSO to the control well; after short centrifugation, place in a 25° C. constant temperature incubator (Shanghai Yiheng Scientific Instrument Co., Ltd., Cat. No.: LRH-150) and incubate for 20 minutes. Add 3 μl of reaction substrate (10 μM MBP and 20 μM ATP dissolved in distilled water) to each well, briefly centrifuge and incubate in a constant temperature incubator at 25° C. for 60 min, and use ADP-Glo Kinase Assay Kit to detect the enzymatic reaction activity, ADP-Glo Kinase Assay Kit detection is carried out according to the operating instructions of the kit. Data are described using the half maximal inhibitory concentration IC50 of the compound.
Compound COc1nc2c(cc1Nc1ncc3ccnc(-c4cccnc4OC)c3n1)CN(C)CC2 [Example 34, N-(2-methoxy-6-methyl-5,6,7,8-tetrahydro-1,6-naphthyridin-3-yl)-8-(2-methoxypyridin-3-yl) pyrido[3,4-d]pyrimidin-2-amine] has an IC50 of 0.61 nM.
In the case of CCOc1nc2c(cc1Nc1ncc3cccc(-c4ccc(=O)n(C)c4)c3n1)CN(C)CC2 [Example 54, 5-(2-((2-ethoxy-6-methyl-5,6,7,8-tetrahydro-1,6-naphthyridin-3-yl)amino)quinazolin-8-yl)-1-methylpyridin-2(1H)-one], the IC50 is reported as 21.7 nM.
Work on COc1nc2c(cc1Nc1ncc3cccc(N4CCCC4=O)c3n1)CN(C)CC2 [Example 24, 1-(2-((2-methoxy-6-methyl-5,6,7,8-tetrahydro-1,6-naphthyridin-3-yl)amino)quinazolin-8-yl) pyrrolidin-2-one] yielded an IC50 of under 0.1 nM.
Compound C=C(C)c1cccc2cnc(Nc3cc4c(nc3OC)CCN(C)C4)nc12 [Example 16, N-(2-methoxy-6-methyl-5,6,7,8-tetrahydro-1,6-naphthyridin-3-yl)-8-(prop-1-en-2-yl) quinazolin-2-amine] has an IC50 of 1.74 nM.
With CN1CCc2[nH]c(=O)c(Nc3ncc4ccnc(NCC(C)(C)C)c4n3)cc2C1 [Example 64, 6-methyl-3-((8-(neopentylamino)pyrido[3,4-d]pyrimidin-2-yl)amino)-5,6,7,8-tetrahydro-1,6-naphthyridin-2(1H)-one] the IC50 was under 0.1 nM.
COc1nc2c(cc1Nc1ncc3cccc(-c4ccccc4OCc4ccccc4)c3n1)CN(C)CC2 [Example 22, 8-(2-(benzyloxy)phenyl)-N-(2-methoxy-6-methyl-5,6,7,8-tetrahydro-1,6-naphthyridin-3-yl) quinazolin-2-amine] showed an IC50 of 5.16 nM.
In the case of Cn1c2c(cc(Nc3ncc4ccnc(N5CCCCC5)c4n3)c1=O)CN(CCO)CC2 [Example 83, 6-(2-hydroxyethyl)-1-methyl-3-((8-(piperidin-1-yl)pyrido[3,4-d]pyrimidin-2-yl)amino)-5,6,7,8-tetrahydro-1,6-naphthyridin-2(1H)-one], the IC50 is reported as 0.16 nM.
Compound COc1ccccc1-c1nccc2cnc(Nc3cc4c([nH]c3=O)CCN(C)C4)nc12 [Example 62, 3-((8-(2-methoxyphenyl)pyrido[3,4-d]pyrimidin-2-yl)amino)-6-methyl-5,6,7,8-tetrahydro-1,6-naphthyridin-2(1H)-one] has an IC50 of 23.1 nM.
In the case of COc1ccccc1-c1cccc2cnc(Nc3cc4c(nc3OC)CCN(C)C4)nc12 [Example 5, N-(2-methoxy-6-methyl-5,6,7,8-tetrahydro-1,6-naphthyridin-3-yl)-8-(2-methoxyphenyl)quinazole Lin-2-amine], the IC50 is reported as under 0.1 nM.
With CCOc1nc2c(cc1Nc1ncc3cccc(-c4ccccc4OC)c3n1)CN(C)CC2 [Example 44, N-(2-ethoxy-6-methyl-5,6,7,8-tetrahydro-1,6-naphthyridin-3-yl)-8-(2-methoxyphenyl)quinazolin-2-amine] the IC50 was under 0.1 nM.
Work on COc1nc2c(cc1Nc1ncc3cccc(-c4ccccc4OC(F)(F)F)c3n1)CN(C)CC2 [Example 18] yielded an IC50 of under 0.1 nM.
Work on COc1nc2c(cc1Nc1ncc3cccc(-c4cccc(Cl)n4)c3n1)CN(C)CC2 [Example 40, 8-(6-chloropyridin-2-yl)-N-(2-methoxy-6-methyl-5,6,7,8-tetrahydro-1,6-naphthyridin-3-yl)quinazolin-2-amine] yielded an IC50 of under 0.1 nM.
With CN1CCc2c(cc(Nc3ncc4ccnc(C5=CCCCC5)c4n3)c(=O)n2C)C1 [Example 81, 3-((8-(cyclohex-1-en-1-yl)pyrido[3,4-d]pyrimidin-2-yl)amino)-1,6-dimethyl-5,6,7,8-tetrahydro-1,6-naphthyridin-2(1H)-one] the IC50 was 0.23 nM.
For COc1nc2c(cc1Nc1ncc3cccc(-c4ccc5c(cnn5C)c4)c3n1)CN(C)CC2 [Example 3, N-(2-methoxy-6-methyl-5,6,7,8-tetrahydro-1,6-naphthyridin-3-yl)-8-(1-methyl-1H-indazole-5-yl)quinazolin-2-amine], the IC50 was under 0.1 nM.
COc1nc2c(cc1Nc1ncc3cccc(Cc4ccccc4)c3n1)CN(C)CC2 [Example 59, 8-benzyl-N-(2-methoxy-6-methyl-5,6,7,8-tetrahydro-1,6-naphthyridin-3-yl)quinazolin-2-amine] gave an IC50 of under 0.1 nM.
Work on CCOc1nc2c(cc1Nc1ncc3ccnc(N[C@@H](CO)C(C)(C)C)c3n1)CN(C)CC2 [Example 57, (R)-2-((2-((2-ethoxy-6-methyl-5,6,7,8-tetrahydro-1,6-naphthyridin-3-yl)amino)pyrido[3,4-d]pyrimidin-8-yl)amino)-3,3-dimethylbutan-1-ol] yielded an IC50 of 0.25 nM.
CCOc1nc2c(cc1Nc1ncc3ccnc(NCC(C)(C)C)c3n1)CN(C)CC2 [Example 52, N2-(2-ethoxy-6-methyl-5,6,7,8-tetrahydro-1,6-naphthyridin-3-yl)-N8-neopentylpyrido[3,4-d]pyrimidine-2,8-diamine] gave an IC50 of under 0.1 nM.
CN1CCc2c(cc(Nc3ncc4ccnc(N5CC6CC6C5)c4n3)c(=O)n2C)C1 (centres unmarked) [Example 86, 3-((8-(3-azabicyclo[3.1.0]hex-3-yl)pyrido[3,4-d]pyrimidin-2-yl)amino)-1,6-dimethyl-5,6,7,8-tetrahydro-1,6-naphthyridin-2(1H)-one] gave an IC50 of 56.3 nM.
COc1nc2c(cc1Nc1ncc3cccc(N4Cc5ccccc5C4=O)c3n1)CN(C)CC2 [Example 32, 2-(2-((2-methoxy-6-methyl-5,6,7,8-tetrahydro-1,6-naphthyridin-3-yl)amino)quinazolin-8-yl) isoindolin-1-one] gave an IC50 of 3.61 nM.
For COc1nc2c(cc1Nc1ncc3cccc(-c4ccccn4)c3n1)CN(C)CC2 [Example 37, N-(2-methoxy-6-methyl-5,6,7,8-tetrahydro-1,6-naphthyridin-3-yl)-8-(pyridin-2-yl)quinazoline-2-amine], the IC50 was 4.27 nM.
With CN1CCc2[nH]c(=O)c(Nc3ncc4ccnc(C5=CCCCC5)c4n3)cc2C1 [Example 75, 3-((8-(cyclohex-1-en-1-yl)pyrido[3,4-d]pyrimidin-2-yl)amino)-6-methyl-5,6,7,8-tetra hydro-1,6-naphthyridin-2(1H)-one] the IC50 was under 0.1 nM.
COc1nc2c(cc1Nc1ncc3cccc(-c4ccc(=O)n(C)c4)c3n1)CN(C)CC2 [Example 10, 5-(2-((2-methoxy-6-methyl-5,6,7,8-tetrahydro-1,6-naphthyridin-3-yl)amino)quinazolin-8-yl)-1-Methylpyridin-2(1H)-one] gave an IC50 of 1.48 nM.
Compound COc1nc2c(cc1Nc1ncc3cccc(C4CCOCC4)c3n1)CN(C)CC2 [Example 11, N-(2-methoxy-6-methyl-5,6,7,8-tetrahydro-1,6-naphthyridin-3-yl)-8-(tetrahydro-2H-pyran-4-base) quinazolin-2-amine] has an IC50 of 1.54 nM.
COc1cccc(-c2cccc3cnc(Nc4cc5c(nc4OC)CCN(C)C5)nc23)c1 [Example 6, N-(2-methoxy-6-methyl-5,6,7,8-tetrahydro-1,6-naphthyridin-3-yl)-8-(3-methoxyphenyl)quinazole Lin-2-amine] gave an IC50 of under 0.1 nM.
With COc1nc2c(cc1Nc1ncc3ccnc(N4CCOCC4)c3n1)CN(C)CC2 [Example 35, N-(2-methoxy-6-methyl-5,6,7,8-tetrahydro-1,6-naphthyridin-3-yl)-8-morpholinopyrido[3,4-d]pyrimidin-2-amine] the IC50 was 1.16 nM.
For COc1nc2c(cc1Nc1ncc3cccc(-c4cnn(C)c4C)c3n1)CN(C)CC2 [Example 53, 8-(1,5-dimethyl-1H-pyrazol-4-yl)-N-(2-methoxy-6-methyl-5,6,7,8-tetrahydro-1,6-Naphthyridin-3-yl)quinazolin-2-amine], the IC50 was under 0.1 nM.
Work on CN1CCc2c(cc(Nc3ncc4ccnc(N5CCOCC5)c4n3)c(=O)n2C)C1 [Example 69, 1,6-dimethyl-3-((8-morpholinopyrido[3,4-d]pyrimidin-2-yl)amino)-5,6,7,8-tetrahydro-1,6-naphthyridin-2(1H)-one] yielded an IC50 of 2.19 nM.
CN1CCc2c(cc(Nc3ncc4ccnc(N5CCCCC5)c4n3)c(=O)n2C)C1 [Example 68, 1,6-dimethyl-3-((8-(piperidin-1-yl)pyrido[3,4-d]pyrimidin-2-yl)amino)-5,6,7,8-tetrahydro-1,6-naphthyridin-2(1H)-one] was tested, and the IC50 was 1.47 nM.
With COc1nc2c(cc1Nc1ncc3cccc(NCC(C)C)c3n1)CN(C)CC2 [Example 39, N8-isobutyl-N2-(2-methoxy-6-methyl-5,6,7,8-tetrahydro-1,6-naphthyridin-3-yl)quinazoline-2,8-diamine] the IC50 was under 0.1 nM.
In the case of CCOc1nc2c(cc1Nc1ncc3cccc(-c4cccnc4OC)c3n1)CN(C)CC2 [Example 47, N-(2-ethoxy-6-methyl-5,6,7,8-tetrahydro-1,6-naphthyridin-3-yl)-8-(2-methoxypyridin-3-yl) quinazolin-2-amine], the IC50 is reported as 2.77 nM.
With COc1nc2c(cc1Nc1ncc3cccc(-c4cccnc4OC)c3n1)CN(C)CC2 [Example 23, N-(2-methoxy-6-methyl-5,6,7,8-tetrahydro-1,6-naphthyridin-3-yl)-8-(2-methoxypyridin-3-yl) quinazolin-2-amine] the IC50 was under 0.1 nM.
Work on COc1nc2c(cc1Nc1ncc3cccc(NCC4CCOCC4)c3n1)CN(C)CC2 [Example 31, N2-(2-methoxy-6-methyl-5,6,7,8-tetrahydro-1,6-naphthyridin-3-yl)-N8-((tetrahydro-2H-pyran-4-yl)methyl)quinazoline-2,8-diamine] yielded an IC50 of 1.66 nM.
